Test results reported in US9200011B2, “Ring constrained analogs as arginase inhibitors” (Mars, Incorporated, priority 2012, dated 2015).

Columns and labels:
tumor bearing mice = conditions: cited from earlier work
[1] = test system: animals undergoing experimental autoimmune encephalomyelitis (EAE); conditions: mouse, in vivo; cited from earlier work
human arginase I (ARG I) = target: T1, human arginase I (ARG I) (Homo sapiens, UniProt P05089); test: Inhibition of arginase I, spectrophotometric urea assay at 530 nm; format: biochemical; conditions: potency rank 1-5; pH 7.4, 37° C., 60 minutes
T1 sequence (P05089 1-322): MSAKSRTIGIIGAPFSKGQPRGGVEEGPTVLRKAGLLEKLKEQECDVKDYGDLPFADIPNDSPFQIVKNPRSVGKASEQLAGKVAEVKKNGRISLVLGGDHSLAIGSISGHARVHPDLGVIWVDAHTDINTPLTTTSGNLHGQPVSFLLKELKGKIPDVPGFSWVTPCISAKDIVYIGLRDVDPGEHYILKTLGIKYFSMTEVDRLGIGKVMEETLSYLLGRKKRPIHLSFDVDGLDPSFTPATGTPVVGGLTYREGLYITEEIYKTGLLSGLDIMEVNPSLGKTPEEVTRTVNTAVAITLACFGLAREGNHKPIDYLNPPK
Experimental: (§1) The assay established the concentration of inhibitor that is required to reduce arginase activity by 50% (IC50).
(§2) Inhibition of arginase I (ARG I) and arginase II (ARG II) by the inventive compounds is followed spectrophotometrically at 530 nm. The compound to be tested is dissolved in DMSO at an initial concentration 50-fold greater than its final concentration in the cuvette. 10 μl of the stock solution is diluted in 90 μl of the assay buffer that comprises 0.1M sodium phosphate buffer containing 130 mM NaCl, pH 7.4, to which is added ovalbumin (OVA) at a concentration of 1 mg/ml. Solutions of arginase I and II are prepared in 100 mM sodium phosphate buffer, pH 7.4 containing 1 mg/ml of OVA to give an arginase stock solution at a final concentration of 100 ng/ml.
(§3) To each well of a 96-well microtiter plate is add 40 μl of enzyme, 10 μl of an inventive compound and 10 μl of enzyme substrate (L-arginine+manganese sulfate). For wells that are used as positive controls, only the enzyme and its substrate are added, while wells used as negative controls contain only manganese sulfate.
(§4) After incubating the microtiter plate at 37° C. for 60 minutes, 150 μl of a urea reagent obtained by combining equal proportions (1:1) of reagents A and B is added to each well of the microtiter plate to stop the reaction. The urea reagent is made just before use by combining Reagent A (10 mM o-phthaldialdehyde, and 0.4% polyoxyethylene (23) lauryl ether (w/v) in 1.8 M sulfuric acid) with Reagent B (1.3 mM primaquine diphosphate, 0.4% polyoxyethylene (23) lauryl ether (w/v), 130 mM boric acid in 3.6 M sulfuric acid). After quenching the reaction mixture, the microtiter plate is allowed to stand for an additional 10 minutes at room temperature to allow color development. The inhibition of arginase is computed by measuring the optical density (OD) of the reaction mixture at 530 nm and normalizing the OD value to percent inhibition observed in the control. The normalized OD is then used to generate a dose-response curve by plotting the normalized OD values against log [concentration] and using regression analysis to compute the IC50 values.

arginase II (ARG II) = target: T2, arginase II (ARG II) (Homo sapiens, UniProt P78540); test: Inhibition of arginase II, spectrophotometric urea assay at 530 nm; format: biochemical; conditions: potency rank 1-5; pH 7.4, 37° C., 60 minutes
T2 sequence (P78540 23-354): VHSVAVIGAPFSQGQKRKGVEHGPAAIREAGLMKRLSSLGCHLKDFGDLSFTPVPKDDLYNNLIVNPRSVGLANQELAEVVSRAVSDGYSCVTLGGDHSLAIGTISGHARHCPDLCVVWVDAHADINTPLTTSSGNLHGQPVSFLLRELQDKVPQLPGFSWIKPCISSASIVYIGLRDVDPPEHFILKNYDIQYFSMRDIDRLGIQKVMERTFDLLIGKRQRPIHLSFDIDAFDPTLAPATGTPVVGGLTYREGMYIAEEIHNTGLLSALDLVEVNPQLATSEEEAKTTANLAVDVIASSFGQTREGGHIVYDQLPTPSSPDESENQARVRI
Experimental: as §1, §2, §3, §4

bacterial arginase = conditions: cited from earlier work
murine chronic model = conditions: murine chronic asthma model; cited from earlier work
[2] = test system: spontaneously hypertensive rats; conditions: cited from earlier work

Structure (SMILES)	IC50 (human arginase I (ARG I)) [nM]	IC50 (arginase II (ARG II)) [nM]	also measured
O=c1[nH]cc(F)c(=O)[nH]1 [5-Fluorouracil]			MDSC immunesuppression (tumor bearing mice): eliminates; tumor growth (tumor bearing mice): delayed tumor growth
NC(CCCCB(O)O)C(=O)O (stereo not shown) [ABH, amino-6-boronohexanoic acid]			severity of EAE versus control animals [1]: much milder form of EAE
N[C@@]1(C(=O)O)C[C@@H](CNCc2ccccc2)C[C@@H]1CCCB(O)O [Example 1, (1S,2S,4S)-1-amino-4-((benzylamino)methyl)-2-(3-boronopropyl)cyclopentanecarboxylic acid]	26 to 100	26 to 100	
N[C@@]1(C(=O)O)C[C@@H](CNCc2ccc(-c3ccc(Cl)cc3)cc2)C[C@@H]1CCCB(O)O [Example 2, (1S,2S,4S)-1-amino-2-(3-boronopropyl)-4-((((4′-chloro-[1,1′-biphenyl]-4-yl)methyl)amino)methyl)cyclopentanecarboxylic acid]	26 to 100	26 to 100	
N[C@@]1(C(=O)O)C[C@@H](CNC2Cc3ccccc3C2)C[C@@H]1CCCB(O)O [Example 3, (1S,2S,4S)-1-amino-2-(3-boronopropyl)-4-(((2,3-dihydro-1H-inden-2-yl)amino)methyl)cyclopentanecarboxylic acid]	26 to 100	101 to 500	
N[C@@]1(C(=O)O)C[C@@H](CNC2CCc3ccccc3C2)C[C@@H]1CCCB(O)O (stereo partly drawn) [Example 4, (1S,2S,4S)-1-amino-2-(3-boronopropyl)-4-(((1,2,3,4-tetrahydronaphthalen-2-yl)amino)methyl)cyclopentanecarboxylic acid]	26 to 100	26 to 100	
N[C@@]1(C(=O)O)C[C@@H](CNC2CCC2)C[C@@H]1CCCB(O)O [Example 5, (1S,2S,4S)-1-amino-2-(3-boronopropyl)-4-((cyclobutylamino)methyl)cyclopentanecarboxylic acid]	26 to 100	101 to 500	
N[C@@]1(C(=O)O)C[C@@H](CN(C2CCC2)C2CCC2)C[C@@H]1CCCB(O)O [Example 6, (1S,2S,4S)-1-amino-2-(3-boronopropyl)-4-((dicyclobutylamino)methyl)cyclopentanecarboxylic acid]	101 to 500	101 to 500	
CN[C@@]1(C(=O)O)CCC[C@@H]1CCCB(O)O [Example 7, (1S,2S)-2-(3-boronopropyl)-1-(methylamino) cyclopentanecarboxylic acid]	501 to 1500	501 to 1500	
N[C@@]1(C(=O)O)CCC[C@@H]1CCCB(O)O [Example 8, (1S,2S)-1-amino-2-(3-boronopropyl)cyclopentanecarboxylic acid]	101 to 500	101 to 500	
N[C@@]1(C(=O)O)CNC[C@@H]1CCCB(O)O [Example 9, (3R,4S)-3-amino-4-(3-boronopropyl)pyrrolidine-3-carboxylic acid]	101 to 500	101 to 500	
NC(=NCCC[C@H](N)C(=O)O)NO [NOHA]			CD3 expression on T-cells (bacterial arginase): reestablished; production of NO by macrophages (bacterial arginase): enhanced
N[C@@H](CSCCB(O)O)C(=O)O [S-(2-boronoethyl)-L-cysteine]			methacholine induced responsiveness of the central airways (murine chronic model): attenuated
Nc1ccn([C@@H]2O[C@H](CO)[C@@H](O)C2(F)F)c(=O)n1 [gemcitabine]			MDSC immunesuppression (tumor bearing mice): eliminates; tumor growth (tumor bearing mice): delayed tumor growth
N=C(NO)NCC[C@H](N)C(=O)O [nor-NOHA, N^ω-hydroxy-nor-L-arginine]			vascular response of resistance vessels to blood flow and pressure ([2]; spontaneously hypertensive animals): improved; blood pressure ([2]; spontaneously hypertensive rats/animals): lowered blood pressure
